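Each compound was tested at five concentrations against cells in 96-well plates for 48 hours. TGI: concentration producing complete growth inhibition.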

Holding throughout (assay): NCI tumour cell line growth inhibition, 48 h
Experiment [1] concerns CCRF-CEM leukemia.
The subject of experiment [2] is HCT-116 colon.
For experiment [3], the system named is HOP-62 NSCLC.
Experiment [4] has as its system IGROV1 ovarian.
Experiment [5] concerns MALME-3M melanoma.
In experiment [6] the test system is MCF7 breast.
Experiment [7] concerns NCI-H23 lung.
The test system of experiment [8] is PC-3 prostate.
Experiment [9] has as its system RXF 393 renal.
Experiment [10] has as its system SK-MEL-28 melanoma.

For `CCOC(=O)NN(C(=O)OCC)C(C(=O)c1ccccc1)N(NC(=O)OCC)C(=O)OCC`, the TGI in [1], in [2], in experiment [3], in [4], in experiment [5] and in experiment [6] was over 100 µM each time. Further, the TGI in [7], in [8], in [9] and in experiment [10] was over 100 µM each time.

Turning to `NC1=Nc2ccccc2Sc2cccc(F)c21`, the TGI was 56.9 µM in experiment [1]; over 100 µM in experiment [2]; over 100 µM in experiment [3]; over 100 µM in experiment [4]; over 100 µM in experiment [5]; over 100 µM in experiment [6]. The TGI in [7], in [8], in [9] and in experiment [10] was over 100 µM throughout.

As to `Nc1ccn(C2CCC(COP(=O)(O)OCC(O)COP(=O)(O)OCC3OC(n4cc(F)c(=O)[nH]c4=O)CC3O)O2)c(=O)n1` (stereo not given), the TGI in experiment [1], in experiment [2], in experiment [3], in [4], in experiment [5] and in experiment [6] was over 100 µM each time. In addition, the TGI in [7], in experiment [8], in [9] and in [10] was over 100 µM in each case.

On to `CNC(=O)CNC(=O)N(C[C@@H]1CCCN1C(=O)[C@H](CC(C)C)NC(=O)OC(C)(C)C)C(C)C`, for which the TGI in experiment [1], in [2], in [3], in experiment [4], in [5] and in experiment [6] was over 100 µM throughout. The TGI in [7], in experiment [8], in experiment [9] and in [10] was over 100 µM each time.

Take `CCOC(=O)c1cc(C)nc2c1c(=O)n(-c1ccccc1)c(=O)n2CCCCN1CCN(c2ncccn2)CC1`: the TGI in [1] is 97.7 µM; in experiment [2], over 100 µM; in [3] it was over 100 µM; in experiment [4] it was over 100 µM; in [5], over 100 µM; in [6] it was over 100 µM. The TGI in [7], in [8], in experiment [9] and in [10] was over 100 µM throughout.

As to `COC(=O)c1c2c(cc3c1CC1(Cc4ccccc4C1)C3)CCC2`, the TGI in [1] was 40.9 µM; in experiment [2], 84.4 µM; in experiment [3], over 100 µM; in experiment [4], over 100 µM; in [5], 67.2 µM; in experiment [6] it was 23.4 µM. Also, the TGI in [7] is over 100 µM; in experiment [8], 48.1 µM; in [9], 52.9 µM; in [10], over 100 µM.

`CCN(C(=O)N[C@H](C(=O)N[C@@H](CSC)C(=O)N[C@@H](C)C(=O)OC)C(C)C)c1ccccc1`: the TGI in [1] was determined as 19.3 µM; in [2] it was 30.9 µM; in experiment [3] it was 36.4 µM; in [4] it was 23.9 µM; in experiment [5], 26.6 µM; in experiment [6] it was 31.8 µM. In addition, the TGI in [7] was found to be 33.4 µM; in [8] it was 31.6 µM; in experiment [9], 32.2 µM; in experiment [10] it was 28.7 µM.

On to `Cc1ccnc(Nc2[nH]c(C(=O)c3ccc(Cl)cc3)c(N)c2C(=S)Nc2ccccc2)c1`, for which the TGI in experiment [1] was over 100 µM; in [2], 30 µM; in [3] it was 47.3 µM; in [4], 30.9 µM; in experiment [5] it was 29.6 µM; in [6], 31.5 µM. The TGI in [7] is 46.5 µM; in experiment [8], over 100 µM; in experiment [9], 32.5 µM; in experiment [10] it was 35.9 µM.

On to `CC(NNC(=O)c1ccncc1)c1cccc(C(F)(F)F)c1` (stereo not given), for which the TGI in [1], in experiment [2], in [3], in [4], in experiment [5] and in experiment [6] was over 100 µM throughout. For the same molecule, the TGI in experiment [7], in experiment [8], in experiment [9] and in experiment [10] was over 100 µM throughout.

`O=C1c2cccnc2-c2nccc3c2c1nc1ccccc13`: the TGI in [1] came out at 10.2 µM; in experiment [2], 0.18 µM; in [3], 0.514 µM; in [4], 1.33 µM; in [5], 0.603 µM; in experiment [6] it was 0.0858 µM. The TGI in experiment [7] came to 0.518 µM; in [8], 1.58 µM; in [9], 0.459 µM; in experiment [10] it was 1.47 µM.

Take `Fc1ccc(C(OCCN2CCC3CCC(C2)N3C/C=C/c2cccs2)c2ccc(F)cc2)cc1` (stereo not given): the TGI in experiment [1] is 26.7 µM; in experiment [2], 16.3 µM; in experiment [3], 30.2 µM; in experiment [4] it was 21.6 µM; in [5], 18.9 µM; in [6] it was 21.5 µM. Besides, the TGI worked out at 20.9 µM in [7], 18.7 µM in experiment [8], 16.3 µM in experiment [9] and 19.1 µM in experiment [10].

The values above are taken from PubChem BioAssay (NCI).
